Data as given in PubChem BioAssay (NCI).
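These data come from cells grown in 96-well plates and exposed to compound for 48 hours at five concentrations. TGI marks complete inhibition of growth.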

Experiments:
Test in all cases: inhibition of tumour cell growth, NCI panel, 48 h
DU-145 prostate = tested on: DU-145 prostate
SNB-19 CNS = tested on: SNB-19 CNS
RPMI-8226 leukemia = tested on: RPMI-8226 leukemia
HOP-62 NSCLC = tested on: HOP-62 NSCLC
HCT-116 colon = tested on: HCT-116 colon
MCF7 breast = tested on: MCF7 breast
RXF 393 renal = tested on: RXF 393 renal
HL-60(TB) leukemia = tested on: HL-60(TB) leukemia
SK-MEL-28 melanoma = tested on: SK-MEL-28 melanoma
COLO 205 colon = tested on: COLO 205 colon

Row | SMILES | TGI (DU-145 prostate) | TGI (SNB-19 CNS) | TGI (RPMI-8226 leukemia) | TGI (HOP-62 NSCLC) | TGI (HCT-116 colon) | TGI (MCF7 breast) | TGI (RXF 393 renal) | TGI (HL-60(TB) leukemia) | TGI (SK-MEL-28 melanoma) | TGI (COLO 205 colon)
1 | S=C1NC2=C(CSC/C2=C\c2ccccc2)C(c2ccccc2)N1 (stereo unspecified) | > 100 µM | > 100 µM | > 100 µM | > 100 µM | > 100 µM | > 100 µM | > 100 µM | 44.5 µM | > 100 µM | > 100 µM
2 | CC(C)C1=C(O)C2=C(C(=O)C1=O)C1(C)CCCC(C)(C)C1C(O)C2OC=O (stereo unspecified) | 19.1 µM | 31.7 µM | 6.9 µM | > 100 µM | 20.3 µM | 27.7 µM | 20.2 µM | 18.7 µM | 13.1 µM | 12.5 µM
3 | CC1(C)OC2COC3([C@@H]4OC(C)(C)O[C@@H]4CO)OC(C)(C)OC3C2O1 (stereo partly specified) | > 100 µM | > 100 µM | > 100 µM | > 100 µM | > 100 µM | > 100 µM | > 100 µM |  | > 100 µM | > 100 µM
4 | Clc1nncc2sc(-c3ccccc3)nc12 | 31.8 µM | 51.4 µM | > 100 µM | 53.6 µM | 48.9 µM | > 92.6 µM | 50.7 µM | 51.2 µM | > 50.8 µM | > 86.5 µM
5 | O=S1SC(=S)C2C=CC=CC21 (stereo unspecified) | > 100 µM | > 100 µM | > 100 µM |  | > 100 µM | > 100 µM | > 100 µM | > 100 µM | > 100 µM | > 100 µM
6 | CSc1nc2c(ncn2C2OC(CO)C(O)C(O)C2O)c(=O)[nH]1 (stereo unspecified) |  | > 100 µM | > 100 µM | > 100 µM | > 100 µM | > 100 µM | > 100 µM | > 100 µM | > 100 µM | > 100 µM
7 | C=C1C(=O)C23C(O)CC4C5(C)CCCC4(C(O)OC5)C2C(OC(C)=O)CC1C3O (stereo unspecified) |  | 28.1 µM | 17.7 µM | 32.2 µM | 18.5 µM |  |  |  | 22.7 µM | 18.9 µM
8 | O=C1CS(=O)(=O)C(c2cccc(Oc3ccccc3)c2)N1c1cc(Cl)ccc1Cl (stereo unspecified) | 43.3 µM | 57 µM |  |  | 41.9 µM | 35.4 µM |  | 81.8 µM | 70.4 µM | > 100 µM
9 | CCN1C(=O)C(=C/C=C/c2ccc(N(CC)CC)cc2)C(=O)N(CC)C1=S | > 100 µM | > 100 µM | > 100 µM | 50.7 µM | > 100 µM | > 100 µM | > 100 µM | > 100 µM | > 100 µM | > 100 µM
10 | COc1ccc(N2C(=O)C3c4[nH]c5ccccc5c4C4CCCCCCCCCC4C3C2=O)cc1 (stereo unspecified) | > 10 µM | > 10 µM | > 10 µM | > 10 µM | > 10 µM | > 10 µM | > 10 µM | > 10 µM | > 10 µM | > 10 µM
11 | O=C(NN1C(=O)CSC1c1cccc(F)c1)c1ccncc1 (stereo unspecified) |  | > 100 µM | > 100 µM |  |  |  | > 100 µM | > 100 µM | > 100 µM | > 100 µM
12 | CON(C)C(=O)C1CCCO1 (stereo unspecified) | > 100 µM | > 100 µM | > 100 µM | > 100 µM | > 100 µM | > 100 µM |  | > 100 µM | > 100 µM | > 100 µM
13 | O=C1C=CC(=O)C(CNc2ccc(C(=O)OCc3ccccc3)cc2)=C1 | 25.1 µM | 26.5 µM | > 21 µM | 33 µM | 18.2 µM | 18.5 µM | 8.54 µM |  | 17.4 µM | 3.79 µM
14 | C=CC(=O)N1C/C(=C\c2ccc(Cl)cc2)C(=O)/C(=C/c2ccc(Cl)cc2)C1 | 3.66 µM | 2.67 µM |  | 1.02 µM | 0.257 µM | 0.845 µM | 0.659 µM |  | 1.6 µM | 0.719 µM
15 | CCOC(=O)NC(Nc1c(F)c(F)c(F)c(F)c1F)(C(F)(F)F)C(F)(F)F | > 100 µM | > 100 µM | > 100 µM | > 100 µM | > 100 µM | > 100 µM | > 100 µM | > 100 µM | > 100 µM | > 100 µM
16 | O=[N+]([O-])c1cccc2c(N=Nc3ccc4ccccc4c3O)c(O)cc(S(=O)(=O)O)c12 |  | > 100 µM | > 100 µM | > 100 µM | > 100 µM |  | > 100 µM | 91.5 µM | > 100 µM | 
17 | COC(=O)C1(O)C(c2ccccc2)=NC2(C)CCCC21 (stereo unspecified) | > 100 µM | > 100 µM | > 100 µM | > 100 µM | > 100 µM |  | > 100 µM |  | > 100 µM | > 100 µM
18 | COc1ccc(C2c3cc4c(cc3OC(NCCO)C2C)OCO4)cc1 (stereo unspecified) | > 100 µM | > 100 µM | 55.3 µM | > 100 µM | 31 µM | 66.7 µM | 75.2 µM | 43.3 µM | 69.1 µM | 36.2 µM
19 | Cc1cc(C)c(/C=C(\C(=C/c2c(C)cc(C)cc2C)[N+](=O)[O-])[N+](=O)[O-])c(C)c1 | > 100 µM | > 100 µM | 70.9 µM | > 100 µM | > 100 µM | > 100 µM | 90.4 µM |  | > 100 µM | > 100 µM
20 | Cc1cc(C)nc(NS(=O)(=O)c2ccc(NC(=O)c3cccc4c(NNc5ccc(S(=O)(=O)N=C(N)N)cc5)c5ccccc5nc34)cc2)n1 | > 50 µM | > 50 µM | > 50 µM | > 50 µM | > 50 µM | > 50 µM | > 50 µM | > 50 µM |  | > 50 µM
21 | O=C(O)CCCCCCCCC(=O)O |  | > 79.3 µM | > 500 µM | > 500 µM | > 500 µM | > 500 µM | > 500 µM | > 281 µM | > 500 µM | > 500 µM
22 | CC1=NNC(=O)C1C1CC(c2c[nH]c3ccccc23)=NN=C1Cl (stereo unspecified) | > 100 µM | > 100 µM | 81.6 µM | > 100 µM | > 100 µM |  | > 100 µM | 53.6 µM | > 100 µM | 80.6 µM
23 | O=[N+]([O-])c1ccc2c(c1)c(N=NC(=S)Nc1ccc(Cl)cc1)c(O)n2CN1CCOCC1 | 22.2 µM | 20.8 µM |  |  | 15.7 µM | 18.8 µM | 19.9 µM | 11.5 µM | 26.6 µM | 27.8 µM
